Data set [1] relates to Penicillium chrysogenum, Candida albicans, Aspergillus niger, Candida krusei and Cryptococcus neoformans. Description: Antifungal activity trials, paper discs on bioassay plates. It counts as cell-based. The following applies: for antifungal activities compared with the end products rimocidin (IIa) and CE-108 (IIb): measured as in example 1, Example 2; for antifungal activity (in words): paper disc trials, Example 1; for increase of antifungal activity by substitution of the free carboxyl- group for the amide- group: versus parent tetraene, all tested fungi, paper discs 9 mm. As for the experimental part:
P. chysogenum, C. krusei, A. niger, C. albicans and C. neoformans, fungi used for testing antifungal activity, were grown in MPDA medium (composition: 2% malt extract, 2% glucose, 0.1% Bactopeptone).
(§1) The antifungal activity of the novel amidated tetraenes [rimocidin B (I-1a) and CE-108B (I-1b)] was tested against various fungi: Penicillium chrysogenum, Candida albicans, Aspergillus niger, Candida krusei and Cryptococcus neoformans. Increasing quantities of the different tetraenes, dissolved in methanol, were applied to paper discs (9 mm in diameter); following the application, the discs were dried and placed on bioassay plates on which the corresponding test fungi had previously been spread. The activity of these amidated tetraenes was compared with that of the molecules from which they derived [[…]], showing that the biological activity of the amidated polyenes was substantially greater than that of the corresponding tetraenes that they derived from (FIG. 2) in all tested fungi. In all cases, the substitution of the free carboxyl- group for the amide- group increased the antifungal activity by approximately fourfold.
The antifungal activity of the novel non-carboxylated tetraenes rimocidin C (IIIa) and CE-108C (IIIb) was measured against Penicillium chrysogenum, Candida albicans, Aspergillus niger, Candida krusei and Cryptococcus neoformans, in comparison with that of the native tetraenes rimocidin (IIa) and CE-108 (IIb).

The next data set has as its system Human erythrocytes. Kind of data set: Trials of haemolytic activity (toxicity) on human blood. The format is cell-based. The note with it: for haemolytic activity as a total percentage of haemolysis: 2.5% human blood, 37° C., 30 minutes, Example 1. As for the experimental part: The trials were conducted according to the method described by Gómez-Gómez et al. (Gómez-Gómez, J. M. et al., 1996, Mol. Microbiol. 19: 909-910). The samples of polyenes were first dried and then dissolved in DMSO at an estimated concentration of 10 to 30 mg/mL. Increasing quantities of the different polyenes were taken to a final volume of 100 μL of DMSO and mixed by means of gentle stirring with 500 μL of PBS buffer (Gómez-Gómez, J. M. et al., 1996, cited earlier), containing 2.5% of human blood, or eventually that of horse. After incubation at 37° C. for 30 minutes without stirring, the cells were sedimented by centrifugation and the degree of haemolysis was assessed by means of measuring the absorption at 545 nm. The values corresponding to the total haemolysis were estimated with a suspension of 2.5% of horse blood in distilled water. The human blood (fundamentally erythrocytes) was obtained from local blood banks (Hospital Ramón y Cajal, Madrid); the horse blood came from Oxoid (defibrinated blood). The amphotericin B and the nystatin were obtained from Sigma (catalogue numbers A-4888 and N-3503, respectively) and the pimaricin came from Calbiochem (527962). All these polyenes were tested directly from commercial samples, without any additional purification
In the above experiments it is clear that the modification of the novel amidated polyenes, produced by the genetic recombinants of Streptomyces diastaticus var. 108 gave rise to compounds with high antifungal activity. […] Human erythrocytes were used as cell models for this study (Cybulska B, et al., 2000, Acta Biochim. Pol. 47: 121-131; Gómez-Gómez, J. M. et al., 1996, Mol. Microbiol. 19: 909-910). The haemolytic activity of the novel compounds was assessed (see the section relating to Experimental Methods) against rimocidin and CE-108; amphotericin B and nystatin A were also included. […] It is worth while highlighting the differences in toxicity observed between CE-108 (IIb) and CE-108B (I-1b) with rimocidin (IIa) and rimocidin B (I-1a); while 50% of haemolysis is achieved with 40 to 60 nanomoles for the last two polyenes, a concentration of CE-108 and is amide 6 or 7 times greater is required in order to achieve the same degree of haemolysis.
The trials were conducted on human blood enriched in eritrocytes, as described previously in Example 1.
In order to measure whether other pharmacological properties of the novel tetraenes were different, haemolytic activity trials were conducted and compared with the parent compounds. Human eritrocytes, were used for these tests. It can be pointed out that although the antifungal activities of rimocidin (IIa) and rimocidin C (IIIa) were similar, their toxicities (measured in terms of haemolytic activity) were 2.5-5 times lower for rimocidin C (IIIa) than for rimocidin (IIa).

The test system of the next data set is Penicillium chrysogenum. Kind of data set: Antifungal activity of pimaricin and AB-400 towards P. chrysogenum. The format is cell-based. The following applies: for antifungal activity at the tested concentration: P. chrysogenum, a total of 200 ng added in each test. On the procedure:
RGU5.3. […] RGU5.3 grown in medium with acetate (FIG. 3A) or glucose (FIG. 3B) as source of carbon, respectively. FIG. 3C illustrates the antifungal activity of pimaricin (IVa) and AB-400 (IVb) towards P. chrysogenum; the samples of polyenes applied were (1): commercial pimaricin (Calbiochem […]), (2): total extract of the fermentation culture of S. sp. RGU5.3 grown in glucose medium; (3) purified AB-400 coming from S. sp. RGU5.3 and (4) pimaricin coming from S. sp. RGU5.3; a total of 200 ng. were added in each test.
as §1
The same results were obtained comparing pimaricin (IVa) and its amidated derivative AB-400 (IVb). Both compounds were purified starting from the isolated strain Streptomyces sp. RGU5.3, as indicated in the section on Experimental Methods. […] In this way, using a fermentation culture containing glucose as the source of carbon and not sodium acetate, the pimaricin/AB-400 balance is 70/30; when the same medium is supplemented with sodium acetate, the production profile is reversed, being AB-400 (IVb) the main polyene compound produced (FIG. 3). […]

As to “14-decarboxy-methyl-CE-108 [CE-108C (IIIb)]”, the “antifungal activities compared with the end products rimocidin (IIa) and CE-108 (IIb)” value in data set [1] is recorded as “not significantly different”.

Take `CCC1C(=O)O[C@H](C)C/C=C/C=C/C=C/C=C/[C@H](OC2OC(C)C(O)C(N)C2O)C[C@@H]2O[C@](O)(CC(O)CCCC(=O)CC1O)C[C@H](O)[C@H]2C(=O)O` (stereo partly drawn) [CE-108 (IIb), CE-108]: the “antifungal activity (in words)” value in data set [1] is “low”. Also, the “concentration required to achieve the same degree (50%) of haemolysis, times greater than for rimocidin and rimocidin B” value in the data set on Human erythrocytes was 6 or 7 times.

For `CCC[C@@H]1C/C=C/C=C/C=C/C=C/[C@H](O[C@@H]2O[C@H](C)[C@@H](O)[C@H](N)[C@@H]2O)C[C@@H]2O[C@](O)(C[C@@H](O)CCCC(=O)C[C@@H](O)[C@H](CC)C(=O)O1)C[C@H](O)[C@H]2C(=O)O` [Rimocidin (IIa), rimocidin], the “quantity with which 50% of haemolysis is achieved” value with Human erythrocytes lay within 40 to 60 nmol.

Regarding `C[C@@H]1C/C=C/C=C/C=C/C=C/[C@H](O[C@@H]2O[C@H](C)[C@@H](O)[C@H](N)[C@@H]2O)C[C@@H]2O[C@](O)(C[C@@H](O)C[C@H]3O[C@@H]3/C=C/C(=O)O1)C[C@H](O)[C@H]2C(=O)O` [pimaricin (IVa), pimaricin], the “antifungal activity at the tested concentration” value in the data set with Penicillium chrysogenum is reported as “no antifungal activity was observed”.

Consider CE-108B [CE-108B (I-1b)], for which, in data set [1], the “antifungal activity (in words)” value is “almost as high as that of rimocidin” and the “increase of antifungal activity by substitution of the free carboxyl- group for the amide- group” value is “approximately fourfold”. Besides, in the data set with Human erythrocytes, the “concentration required to achieve the same degree (50%) of haemolysis, times greater than for rimocidin and rimocidin B” value is 6 or 7 times; the “haemolytic activity compared with the corresponding tetraene it derived from” value is on record as “not significantly different”; the “haemolytic activity, times lower than that of rimocidin” value is given as 6 or 7 times.

Turning to rimocidin B [Rimocidin B (I-1a)], the “increase of antifungal activity by substitution of the free carboxyl- group for the amide- group” value in data set [1] is recorded as “approximately fourfold”. Besides, in the data set on Human erythrocytes, the “haemolytic activity compared with the corresponding tetraene it derived from” value is reported as “not significantly different” and the “quantity with which 50% of haemolysis is achieved” value fell in the range of 40 to 60 nmol.

Consider `C[C@@H]1C\C=C/C=C\C=C/C=C[C@H](O[C@@H]2O[C@H](C)[C@@H](O)[C@H](N)[C@@H]2O)C[C@@H]2O[C@](O)(C[C@@H](O)C[C@H]3O[C@@H]3/C=C\C(=O)O1)C[C@H](O)[C@H]2C(N)=O` [AB-400 (IVb), AB-400], for which, in the data set on Penicillium chrysogenum, the “antifungal activity at the tested concentration” value was “highly active”. Further, in the data set on Penicillium chrysogenum (Penicillium chrysogenum), the “difference in antifungal activity between AB-400 and pimaricin” value is reported as ~1 order of magnitude. For the same compound, the “solubility compared with the parent / non-amidated compound” value in “Solubility” is “increase in their solubility”. In the data set on Human erythrocytes, the “haemolytic activity of AB-400 compared with commercial pimaricin” value was “did not show significant differences”.

On to “14-decarboxy-14-methyl-rimocidin [Rimocidin C (IIIa)]”, for which, in data set [1], the “antifungal activities compared with the end products rimocidin (IIa) and CE-108 (IIb)” value was “not significantly different”. Also, the “toxicity (measured in terms of haemolytic activity), times lower than for rimocidin (IIa)” value with Human erythrocytes was 2.5-5 times.

As to `C[C@@H]1[C@H](O)[C@@H](C)/C=C/C=C/CC/C=C/C=C/C=C/C=C/C(O[C@H]2O[C@H](C)[C@@H](O)[C@H](N)[C@@H]2O)CC2O[C@](O)(CC(O)C(O)CCC(O)CC(O)CC(O)CC(=O)O[C@H]1C)CC(O)C2C(=O)O` (stereo partly drawn) [Nystatin A, nystatin A], the “haemolytic activity as a total percentage of haemolysis” value in the data set with Human erythrocytes (20 nanomoles of polyene) is listed as 2.20%; with Human erythrocytes (40 nanomoles of polyene) it was 49.53%; in the data set on Human erythrocytes (60 nanomoles of polyene), 76.80%; with Human erythrocytes (80 nanomoles of polyene) it was 92.79%; in the data set on Human erythrocytes (100 nanomoles of polyene), 100.00%.

The values are drawn from patent US20090221520A1, “Polyene Antibiotics, Compositions Containing Said Antibiotics, Method and Micro-Organisms Used to Obtain Same and Applications Thereof” (priority 2005, published 2009).
